Patent publication US9115085B2, “Crystalline forms of a prolyl hydroxylase inhibitor” (FibroGen, Inc., priority 2012, dated 2015)

Legend:
[1] = Solid form stability on storage (XRPD); format: physicochemical; conditions: for XRPD pattern / form after storage: 40° C./75% RH
Text: X-Ray Powder Diffraction patterns were collected on a Bruker AXS C2 GADDS diffractometer using Cu Kα radiation (40 kV, 40 mA), automated XYZ stage, laser video microscope for auto-sample positioning and a HiStar 2-dimensional area detector. X-ray optics consists of a single Gobel multilayer mirror coupled with a pinhole collimator of 0.3 mm. […] Alternatively, X-Ray Powder Diffraction patterns were collected on a Bruker D8 diffractometer using Cu Kα radiation (40 kV, 40 mA), θ-2θ goniometer, and divergence of V4 and receiving slits, a Ge monochromator and a Lynxeye detector. […] The software used for data collection was Diffrac Plus XRD Commander v2.5.0 and the data were analyzed and presented using Diffrac Plus EVA v11.0.0.2 or v13.0.0.2. Samples were run under ambient conditions as flat plate specimens using powder as received. The sample was gently packed into a cavity cut into polished, zero-background (510) silicon wafer. The sample was rotated in its own plane during analysis. The details of the data collection are: • Angular range: 2 to 42°2θ • Step size: 0.05°2θ • Collection time: 0.5 s/step • Analysis duration: 7 minutes Differential Scanning Calorimetry (DSC)

Moisture sorption = format: physicochemical; conditions: from 5% to 95% relative humidity; lost on desorption
Hep3B cells = test: Cell-based EPO assay; parameters: species or system human; conditions: 30 μM compound in DMSO compared to DMSO only control, 72 hours
Method: Hep3B cells (human hepatocellular carcinoma cells from ATCC, cat #HB-8064) were plated at 25,000 cells per well 96 well plates. The next day, the cells were washed once with DMEM (Cellgro, cat #10-013-CM)+0.5% fetal bovine serum (Cellgro, cat #35-010-CV) and incubated with various concentrations of compound or vehicle control (0.15% DMSO) in DMEM+0.5% fetal bovine serum for 72 hours. Cell free culture supernatants were generated by transfer to a conical bottom 96 well plate and centrifugation for 5 minutes at 2000 rpm. The supernatant was quantitated for EPO using a human EPO ELISA kit (R&D Systems, cat #DEP 00). The EPO values for the compounds reported herein (e.g., Table 22) are the measured value for cells plus compound minus the value for the vehicle control for the same cell preparation. The EPO values for the vehicle control for the cell preparations varied from 0-12.5 mIU/mL.

In the case of `Cc1nc(C(=O)NCC(=O)O)c(O)c2ccc(Oc3ccccc3)cc12` [Compound A Form A, [(4-hydroxy-1-methyl-7-phenoxy-isoquinoline-3-carbonyl)-amino]-acetic acid], the “relative stability of crystalline forms” value ([1]; among Form B, C, and D of Compound A) was “most stable crystalline form”, the “moisture sorption weight gain” value (Moisture sorption) was “approximately 0.2%” and the “Cell EPO” value (Hep3B cells) was 182 mIU/mL.

For `Cc1nc(C(=O)NCC(=O)O)c(O)c2ccc(Oc3ccccc3)cc12` [Compound A Form D, [(4-hydroxy-1-methyl-7-phenoxy-isoquinoline-3-carbonyl)-amino]-acetic acid DMSO:water solvate], the form conversion ([1]; left drying at ambient temperature) was “converted to Form A”.

In the case of `Cc1nc(C(=O)NCC(=O)O)c(O)c2ccc(Oc3ccccc3)cc12.NCCO` [Compound A ethanolamine salt, [(4-hydroxy-1-methyl-7-phenoxy-isoquinoline-3-carbonyl)-amino]-acetic acid ethanolamine salt], the “XRPD pattern / form after storage” value [1] was “Pattern 3”.

In the case of “[(4-hydroxy-1-methyl-7-phenoxy-isoquinoline-3-carbonyl)-amino]-acetic acid diethanolamine salt [Compound A diethanolamine salt]”, the “XRPD pattern / form after storage” value [1] was “Pattern 2”.

With “[(4-hydroxy-1-methyl-7-phenoxy-isoquinoline-3-carbonyl)-amino]-acetic acid hemihydrate [Compound A Form B]” the “form conversion on storage” value ([1]; ambient temperature, full month (32 days), high resolution XRPD) was “almost completely reverted to anhydrous Form A” and the “crystalline pattern change on storage” value ([1]; stored at 25° C./96% RH for twelve days) was “reverting to Form A”.
